Legend:
CETP [1] = biological target: T1, CETP (Homo sapiens, UniProt P11597); assay: Ex vivo CETP activity inhibitory effect of plasma from transgenic mice; design: from tissue; host or cells: plasma of transgenic mice carrying the human CETP gene; conditions: mouse, po, p.o., 6 hours after administration, transgenic mice with human CETP gene, read-out: CETP activity inhibitory rate in plasma from transgenic mouse
T1 sequence (P11597 18-493): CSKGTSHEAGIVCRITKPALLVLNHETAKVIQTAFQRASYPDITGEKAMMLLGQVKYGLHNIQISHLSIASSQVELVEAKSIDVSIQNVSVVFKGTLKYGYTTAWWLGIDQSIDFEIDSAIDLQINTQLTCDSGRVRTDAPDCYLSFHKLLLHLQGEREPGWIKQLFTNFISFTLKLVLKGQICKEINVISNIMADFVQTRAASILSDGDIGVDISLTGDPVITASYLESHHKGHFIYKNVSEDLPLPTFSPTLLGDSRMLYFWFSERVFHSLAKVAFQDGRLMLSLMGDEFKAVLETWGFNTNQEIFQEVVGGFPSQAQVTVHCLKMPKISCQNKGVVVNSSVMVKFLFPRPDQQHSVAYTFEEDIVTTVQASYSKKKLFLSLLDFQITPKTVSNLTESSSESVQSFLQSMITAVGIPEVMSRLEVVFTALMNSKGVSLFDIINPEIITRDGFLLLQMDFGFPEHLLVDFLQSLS
Description: Potassium bromide (KBr) was added to the plasma of healthy subjects (40 ml) to adjust specific gravity to d=1.125 g/ml. Density gradient centrifugation (227,000×g, 4° C., 17 hours) was conducted to obtain a fraction with specific gravity d>1.125 g/ml (HDL3 fraction). The fraction thus obtained was dialyzed against a PBS solution [10 mM Na2HPO4/10 mM NaH2PO4/0.15 M NaCl/1 mM EDTA (pH 7.4)]. Then, tritium-labeled cholesterol (10 nM) (50.3 Ci/mM) was dissolved in 95% ethanol and added gradually to the above HDL3 fraction under stirring. The solution was incubated for 18 hours at 37° C. [Tritium-labeled cholesterol was esterified by this procedure by the action of lecithin:cholesterol acyltransferase (LCAT) present on the surface of HDL3 and taken up into the interior of HDL3 as tritium-labeled cholesterylester ([^3H]CE)]. After incubation, KBr was added and specific gravity was adjusted to d=1.21 g/ml. Density gradient centrifugation (227,000×g, 4° C., 17 hours) was conducted and the fraction with d<1.21 g/ml was harvested. The fraction thus obtained was dialyzed against the above PBS solution to obtain HDL3 that took up [^3H]CE ([^3H]CE-HDL3, specific gravity: 1.125<d<1.21, specific activity: 101,000 dpm/nM), which served as donor lipoprotein.
Physiological saline (specific gravity d=1.006 g/ml) was layered upon the plasma of healthy subjects (100 ml). Density gradient centrifugation (227,000×g, 4° C., 4 hours) was conducted and the fraction with specific gravity d>1.006 g/ml was harvested. KBr was added to the fraction thus obtained to adjust specific gravity to d=1.063 g/ml and density gradient centrifugation (227,000×g, 4° C., 20 hours) was conducted to harvest the fraction with specific gravity […]. The thus-obtained fraction was dialyzed against the above PBS solution to obtain fractions containing IDL and LDL (specific gravity: 1.006<d<1.063), which served as acceptor lipoprotein.
Samples were suspended in a 0.5% methylcellulose solution and administered orally using a plastic probe to transgenic mice having introduced human CETP gene (hereafter referred to as mice; prepared using the method described in Japanese Patent Application No. Hei 8-130660), which had been fasted overnight. Blood was collected before administration, and 6 hours after administration CETP activity in the plasma was determined using the following method.
Donor lipoprotein ([^3H]CE-HDL3, containing 0.21 μg cholesterol) obtained in the above (1), acceptor lipoprotein obtained in the above (2) (containing 21 μg of cholesterol), and 0.9 μl of mice plasma were added to microtubes. A total volume was adjusted to 600 μl/tube with a TBS solution [10 mM Tris/0.15 M NaCl (pH 7.4)]. The microtubes were incubated for 15 hours at 37° C. or 4° C. Then, an ice-cooled TBS solution (400 μl/tube) and a 0.3% dextran sulfate solution (100 μl/tube) containing 0.15 M magnesium chloride were added to the microtubes and mixed well. After allowing the microtubes to stand for 30 minutes at 4° C., centrifugation (8,000 rpm, 4° C., 10 minutes) was carried out and radioactivity of the resulting supernatant (HDL fraction) was determined with a scintillation counter.

CETP [2] = biological target: T1, CETP; assay: In vitro CETP activity inhibitory effect in whole plasma; assay type: biochemical; design: Plasma containing [^3H]CE-HDL3 (600,000 dpm/ml) was prepared by adding donor lipoprotein obtained in the above (1) to plasma from healthy subjects; from tissue; host or cells: whole plasma of healthy subjects; conditions: plasma from healthy subjects containing [3H]CE-HDL3, incubated 4 hours at 37° C.; read-out: CETP activity inhibition in whole plasma IC50
Description: The fraction thus obtained was dialyzed against a PBS solution [10 mM Na2HPO4/10 mM NaH2PO4/0.15 M NaCl/1 mM EDTA (pH 7.4)]. Then, tritium-labeled cholesterol (10 nM) (50.3 Ci/mM) was dissolved in 95% ethanol and added gradually to the above HDL3 fraction under stirring. The solution was incubated for 18 hours at 37° C. […] After incubation, KBr was added and specific gravity was adjusted to d=1.21 g/ml. […] A sample solution was prepared using a 1:1 solution of N-methylpyrrolidone and polyethyleneglycol 400 as a solvent. […] Based on the inhibition rate (%) of CETP activity, IC50 value of each sample was calculated.

Structure (SMILES) | inhibition at 100 mg/kg (CETP [1]) [%] | IC50 (CETP [2]) [µM] | inhibition at 10 mg/kg (CETP [1]) [%] | inhibition at 30 mg/kg (CETP [1]) [%]
CC(C)CCC1(C(=O)Nc2ccccc2SSc2ccccc2NC(=O)C2(CCC(C)C)CCCCC2)CCCCC1 [Example 8] | 25 | 3 |  | 
CC(C)CCC1(C(=O)Nc2ccccc2S)CCCCC1 [Example 11, N-(2-mercaptophenyl)-1-isopentylcyclohexanecarboxamide] | 57 | 5 | 27 | 45
CC(C)C1(C(=O)Nc2ccccc2S)CCCCC1 [Example 14] |  | 8 |  | 9
Cc1ccc(S)c(NC(=O)C2(CCC(C)C)CCCCC2)c1 [Example 22] |  | 56 | 22 | 44
Cc1cccc(NC(=O)C2(CCC(C)C)CCCCC2)c1S [Example 23] |  |  |  | 18
Cc1ccc(NC(=O)C2(CCC(C)C)CCCCC2)c(S)c1 [Example 24] |  | 29 |  | 29
CC(=O)Sc1ccccc1NC(=O)C1(CCC(C)C)CCCCC1 [Example 25, S[2-(1-isopentylcyclohexanecarbonylamino)phenyl]thioacetate] | 52 | 11 | 19 | 45
CC(C)(C)C(=O)Sc1cc(Cl)c(Cl)cc1NC(=O)C1(C2CC2)CCCCC1 [Example 67] |  | 9 |  | 
CC(C(=O)Nc1cc(Cl)c(Cl)cc1SC(=O)C(C)(C)C)C1CCCCC1 (centres unmarked) [Example 68] |  | 10 |  | 
CCCCCC1(C(=O)Nc2cc(Cl)c(Cl)cc2SC(=O)C(C)(C)C)CCCCC1 [Example 69] |  | 6 |  | 
CC(C)(C)C(=O)Sc1cc(Cl)c(Cl)cc1NC(=O)C1(CC2CC2)CCCCC1 [Example 70] |  | 4 |  | 
CC(C)(C)C(=O)Sc1cc(Cl)c(Cl)cc1NC(=O)C1(CC2CCCCC2)CCCCC1 [Example 71] |  | 4 |  | 
CC(C)CCC1(C(=O)Nc2cc(Cl)c(Cl)cc2SC(=O)C(C)(C)C)CCCCCC1 [Example 72] |  | 74 |  | 
CC(C)CCC1(C(=O)Nc2cc(Cl)c(Cl)cc2SC(=O)C(C)(C)C)CCC1 [Example 73] |  | 37 |  | 
COc1ccc(SC(=O)C(C)(C)C)c(NC(=O)C2(CCC(C)C)CCCCC2)c1 [Example 78] |  |  |  | 11
CC(C)CCC1(C(=O)Nc2cc(Cl)c(Cl)cc2SSc2cc(Cl)c(Cl)cc2NC(=O)C2(CCC(C)C)CCCCC2)CCCCC1 [Example 82, bis-[4,5-dichloro-2-(1-isopentylcyclohexane-carbonylamino)phenyl]disulfide] |  | 7 |  | 
CC(C)CCC1(C(=O)Nc2ccccc2SSCC2CCCO2)CCCCC1 (centres unmarked) [Example 83, 2-tetrahydrofurylmethyl 2-(1-isopentylcyclohexane-carbonylamino)phenyl disulfide] |  | 5 |  | 
CC(C)(C)C(=O)Nc1ccccc1SSc1ccccc1 [Example 84, phenyl 2-pivaloylaminophenyl disulfide] |  | 158 |  | 

Further lines, results first:

inhibition at 100 mg/kg (CETP [1]) [%] | IC50 (CETP [2]) [µM] | inhibition at 10 mg/kg (CETP [1]) [%] | inhibition at 30 mg/kg (CETP [1]) [%] | Structure (SMILES)
 | 13 |  | 21 | CC(=O)N[C@H](C(=O)Sc1ccccc1NC(=O)C1(CCC(C)C)CCCCC1)C(C)C [Example 25-45]
35 | 9 |  |  | CC(C)CCC1(C(=O)Nc2ccccc2SC(=O)c2ccc([N+](=O)[O-])cc2)CCCCC1 [Example 25-46]
 | 21 |  | 16 | CC(C)CCC1(C(=O)Nc2ccccc2SC(=O)c2ccccc2Cl)CCCCC1 [Example 25-49]
 | 68 | 19 | 40 | CC(=O)OC(C)(C)C(=O)Sc1ccccc1NC(=O)C1(CCC(C)C)CCCCC1 [Example 25-52]
 | 7 |  | 26 | CC(C)CCC1(C(=O)Nc2ccccc2SC(=O)C2CCN(C)CC2)CCCCC1 [Example 25-53]
 | 7 |  | 24 | CC(=O)NC1(C(=O)Sc2ccccc2NC(=O)C2(CCC(C)C)CCCCC2)CCCCC1 [Example 25-56]
 | 7 | 18 | 46 | CSCC[C@H](NC(C)=O)C(=O)Sc1ccccc1NC(=O)C1(CCC(C)C)CCCCC1 [Example 25-57]
 | 8 | 20 | 37 | CC(C)CCC1(C(=O)Nc2ccccc2SC(=O)/C=C/c2ccccc2)CCCCC1 [Example 25-59]
 | 5 |  | 28 | CC(C)CCC1(C(=O)Nc2ccccc2SC(=O)Cc2ccccc2)CCCC1 [Example 25-61]
25 | 21 |  |  | COc1ccccc1C(=O)Sc1ccccc1NC(=O)C1(CCC(C)C)CCCC1 [Example 25-63]
17 | 10 |  |  | CC(=O)Sc1cc(Cl)c(Cl)cc1NC(=O)C1(CCC(C)C)CCCCC1 [Example 25-84]
19 | 9 |  |  | CC(C)CCC1(C(=O)Nc2ccccc2SC(=O)NC(C)(C)C)CCCCC1 [Example 25-97]
 | 10 |  |  | CC(C)CC1(C(=O)Nc2cc(Cl)c(Cl)cc2SC(=O)C(C)(C)C)CCCCC1 [Example 66-42]
 | 23 |  |  | CC(C)CCCC1(C(=O)Nc2cc(Cl)c(Cl)cc2SC(=O)C(C)(C)C)CCCCC1 [Example 66-43]
 | 35 |  |  | CC(C)(C)CC1(C(=O)Nc2cc(Cl)c(Cl)cc2SC(=O)C(C)(C)C)CCCCC1 [Example 66-46]
 | 11 |  |  | CC(C)(C)C(=O)Sc1cc(Cl)c(Cl)cc1NC(=O)C1(CCC2CC2)CCCCC1 [Example 66-48]
 | 40 |  |  | CC(C)CC1(C(=O)Nc2cc(Cl)c(Cl)cc2SC(=O)C(C)(C)C)CCCC1 [Example 66-49]
 | 45 |  |  | CC(C)(C)C(=O)Sc1cc(Cl)c(Cl)cc1NC(=O)C1(CC2CCCCC2)CCCC1 [Example 66-51]
 | 46 |  |  | COC(=O)Sc1cc(Cl)c(Cl)cc1NC(=O)C1(C)CCCCC1 [Example 66-52]
 | 15 |  |  | CCNC(=O)Sc1cc(Cl)c(Cl)cc1NC(=O)C1(C)CCCCC1 [Example 66-53]
 | 5 |  |  | CC(C)CCC1(C(=O)Nc2cc(Cl)c(Cl)cc2SSc2cc(Cl)c(Cl)cc2NC(=O)C2(CCC(C)C)CCCC2)CCCC1 [Example 82-1]
